{"source": "patent US12576167B2", "about": "“Gadolinium-based compound, method for producing same, and MRI contrast agent containing same” (KYUNGPOOK NATIONAL UNIVERSITY INDUSTRY-ACADEMIC COOPERATION …, priority 2020, dated 2026)", "key": {"[1]": {"assay": "Measurement of relaxivity (r1, r2), phantom in 3 T MRI", "assay_type": "physicochemical", "conditions": "0.0625-1 mM in tertiary distilled water, linear regression, in mM-1 s-1 (unit assumed)", "description": "Relaxivity (r1, r2) of each of Gd-DO3A-Ga synthesized using the method according to Present Example 2, and Gadovist® and Dotarem® as commercial cyclic contrast agents as comparative groups.\nSpecifically, a phantom was prepared by diluting the gadolinium complex to 5 concentrations (0.0625, 0.125, 0.25, 0.5, 1 mM) using tertiary distilled water, and then T1 and T2 relaxation times thereof were measured in 3 T MRI. Thus, R (relaxivity=1/T) thereof at each of the concentrations was calculated and a result of the relaxivity of the gadolinium complex was obtained via linear regression analysis. (See following Table 1 and FIG. 5)"}, "[2]": {"molecular_target": "amyloid beta polymer (oligomeric Aβ) (Homo sapiens, UniProt P05067)", "sequence (P05067 672-713 limits assumed)": "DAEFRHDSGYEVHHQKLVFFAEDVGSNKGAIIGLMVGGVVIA", "assay": "Phantom test for targeting ability toward amyloid beta polymer, 9.4 T MR", "assay_type": "binding", "conditions": "amyloid beta polymer incubated with contrast agent at 37° C. for 24 hours, washed pellet, FIG. 7", "description": "HFIP (221.5 μl) was added to amyloid beta (1 mg, 1 mM) to produce a mixture which in turn was shaken for 1 hour at room temperature using a shaker to remove preaggregation. Next, the amyloid beta from which the pre-aggregation was removed was dried. Then, DMSO (221.5 μl) was added thereto to adjust a concentration thereof to 1 mM. Then, a suspension thereof was produced using a mixer and a sonicator, and PBS (1×, pH 7.4, 878.5 μl) was added to the suspension to adjust a concentration of the suspension to 0.2 mM. Thereafter, the suspension was subjected to incubation for 4 days at 37° C. using a shaker. Then, amyloid beta polymer (oligomeric Aβ) that has been polymerized was dispensed by 200 μl. Then, a further mixed solution in which the compound Gd-DO3A-Ga was dissolved in PBS at a concentration of 2 mM was added thereto at 20 μl amount. A further mixed solution in which the commercial contrast agent (Gadovist®) was dissolved in PBS at a concentration of 2 mM was added thereto at 20 μl amount. Then, each of two resulting mixtures was incubated at 37° C. for 24 hours using a shaker. After completion of the incubation, a supernatant was removed therefrom via centrifugation, and then the amyloid beta polymer was washed with PBS, and then 200 μl of PBS:DMSO=9:1 solution was added to a pellet thereof to prepare MRI phantom samples. […]"}}, "data": [{"smiles": "O=C([O-])CN1CCN(CC(=O)[O-])CCN([C@H](CO)[C@H](O)CO)CCN(CC(=O)[O-])CC1.[Gd+3]", "note": "(racemic) [Gadovist ®]", "values": [{"measurement": "relaxivity r1", "setting": "[1]", "value": "3.85 ± 0.09"}, {"measurement": "relaxivity r2", "setting": "[1]", "value": "4.87 ± 0.11"}, {"measurement": "MR signal intensity (contrast enhancement effect) of phantom versus control incubated only with amyloid beta polymer", "setting": "[2]", "value": "no significant difference"}]}, {"smiles": "CNC[C@H](O)[C@@H](O)[C@H](O)[C@H](O)CO.O=C([O-])CN1CCN(CC(=O)[O-])CCN(CC(=O)O)CCN(CC(=O)[O-])CC1.[Gd+3]", "note": "[Dotarem ®]", "values": [{"measurement": "relaxivity r1", "setting": "[1]", "value": "3.40 ± 0.07"}, {"measurement": "relaxivity r2", "setting": "[1]", "value": "3.88 ± 0.16"}]}]}
